Test results published in patent US20230095836A1, “SUBSTITUTED 5,6-DIPHENYL-3(2H)-PYRIDAZINONES FOR USE AS FUNGICIDES” (FMC Corporation, priority 2020, published 2023).

What was measured:
Assay type in all cases: in vivo
[1] = system: Phakopsora pachyrhizi; assay: Test D: test solution sprayed on soybean seedlings, inoculated next day with Phakopsora pachyrhizi (Asian soybean rust); visual disease rating (100 = 100% disease control, 0 = no control; dash = not tested)
From the text: General protocol for preparing test suspensions for Tests A-F: the test compounds were first dissolved in acetone in an amount equal to 3% of the final volume and then suspended at the desired concentration (in ppm) in acetone and purified water (50/50 mix by volume) containing 250 ppm of the surfactant PEG400 (polyhydric alcohol esters). The resulting test suspensions were then used in Tests A-F.
The test solution was sprayed to the point of run-off on soybean seedlings. The following day the seedlings were inoculated with a spore suspension of Phakopsora pachyrhizi (the causal agent of Asian soybean rust) and incubated in a saturated atmosphere at 22° C. for 24 h and then moved to a growth chamber at 22° C. for 8 days, after which time visual disease ratings were made.
A rating of 100 indicates 100% disease control and a rating of 0 indicates no disease control (relative to the controls). A dash (—) indicates the compound was not tested.

[2] = system: Puccinia recondita f. sp. tritici; assay: Test B: test solution sprayed on wheat seedlings, inoculated next day with Puccinia recondita f. sp. tritici (wheat leaf rust); disease rating (100 = 100% disease control, 0 = no control; dash = not tested)
From the text: The resulting test suspensions were then used in Tests A-F. The test solution was sprayed to the point of run-off on wheat seedlings. […] A rating of 100 indicates 100% disease control and a rating of 0 indicates no disease control (relative to the controls). A dash (—) indicates the compound was not tested.

[3] = system: Botrytis cinerea; assay: Test E: test suspension sprayed on tomato seedlings, inoculated next day with Botrytis cinerea (tomato Botrytis); visual disease rating (100 = 100% disease control, 0 = no control; dash = not tested)
Description: (§1) The resulting test suspensions were then used in Tests A-F. The test suspension was sprayed to the point of run-off on tomato seedlings. The following day the seedlings were inoculated with a spore suspension of Botrytis cinerea (the causal agent of tomato Botrytis) and incubated in a saturated atmosphere at 20° C. for 48 h, and then moved to a growth chamber at 24° C. for 3 days, after which time visual disease ratings were made. A rating of 100 indicates 100% disease control and a rating of 0 indicates no disease control (relative to the controls). A dash (—) indicates the compound was not tested.

[4] = system: Alternaria solani; assay: Test F: test suspension sprayed on tomato seedlings, inoculated next day with Alternaria solani (tomato early blight); visual disease rating (100 = 100% disease control, 0 = no control; dash = not tested)
Description: as §1, with “Alternaria solani” for “Botrytis cinerea”, “early blight)” for “Botrytis)”, “27°” for “20°”, “20°” for “24°”

[5] = system: Blumeria graminis f. sp. tritici; assay: Test C: test suspension sprayed on wheat seedlings, inoculated next day with Blumeria graminis f. sp. tritici (wheat powdery mildew); visual disease rating (100 = 100% disease control, 0 = no control; dash = not tested)
Description: The resulting test suspensions were then used in Tests A-F. The test suspension was sprayed to the point of run-off on wheat seedlings. The following day the seedlings were inoculated with a spore dust of Blumeria graminis f. sp. tritici, (also known as Erysiphe graminis f. sp. tritici, the causal agent of wheat powdery mildew) and incubated in a growth chamber at 20° C. for 8 days, after which time visual disease ratings were made. A rating of 100 indicates 100% disease control and a rating of 0 indicates no disease control (relative to the controls). A dash (—) indicates the compound was not tested.

[6] = system: Zymoseptoria tritici; assay: Test A: test solution sprayed on wheat seedlings, inoculated next day with Zymoseptoria tritici (wheat leaf blotch); disease rating (100 = 100% disease control, 0 = no control; dash = not tested)
Description: The resulting test suspensions were then used in Tests A-F. The test solution was sprayed to the point of run-off on wheat seedlings. The following day the seedlings were inoculated with a spore suspension of Zymoseptoria tritici (the causal agent of wheat leaf blotch) and incubated in a saturated atmosphere at 24° C. for 48 h, and then moved to a growth chamber at 20° C. for 17 days, after which time disease ratings were made. A rating of 100 indicates 100% disease control and a rating of 0 indicates no disease control (relative to the controls). A dash (—) indicates the compound was not tested.

Structure (SMILES): COc1cc(F)c(Cl)c(-c2nn(C)c(=O)c(Cl)c2-c2ccc(F)cc2Cl)c1 [Compound 157]
- Test D disease control rating ([1]; 50 ppm): 100%
- Test B disease control rating ([2]; 50 ppm): 100%
- Test E disease control rating ([3]; 50 ppm): 99%
- Test F disease control rating ([4]; 50 ppm): 100%
- Test C disease control rating ([5]; 50 ppm): 100%
- Test A disease control rating ([6]; 50 ppm): 98%

Structure (SMILES): CCn1nc(-c2cc(OC)cc(OC)c2)c(-c2c(F)cccc2F)c(Br)c1=O [Compound 15]
- Test D disease control rating ([1]; 50 ppm): 0%
- Test B disease control rating ([2]; 50 ppm): 41%
- Test E disease control rating ([3]; 50 ppm): 68%
- Test F disease control rating ([4]; 50 ppm): 0%
- Test C disease control rating ([5]; 50 ppm): 13%
- Test A disease control rating ([6]; 50 ppm): 78%

Structure (SMILES): COc1cc(F)cc(-c2nn(C)c(=O)c(Cl)c2-c2ccc(F)cc2Cl)c1 [Compound 76]
- Test D disease control rating ([1]; 50 ppm): 99%
- Test B disease control rating ([2]; 50 ppm): 100%
- Test E disease control rating ([3]; 50 ppm): 97%
- Test F disease control rating ([4]; 50 ppm): 99%
- Test C disease control rating ([5]; 50 ppm): 99%
- Test A disease control rating ([6]; 50 ppm): 100%

Structure (SMILES): COc1c(-c2ccc(F)cc2Cl)c(-c2cccc(F)c2Br)nn(C)c1=O [Compound 110]
- Test D disease control rating ([1]; 50 ppm): 79%
- Test B disease control rating ([2]; 50 ppm): 100%
- Test E disease control rating ([3]; 50 ppm): 96%
- Test F disease control rating ([4]; 50 ppm): 99%
- Test C disease control rating ([5]; 50 ppm): 100%
- Test A disease control rating ([6]; 50 ppm): 100%

Structure (SMILES): CCn1nc(-c2ccc(F)cc2Cl)c(-c2ccc(F)cc2Cl)c(C#N)c1=O [Compound 7]
- Test D disease control rating ([1]; 250 ppm): 0%
- Test B disease control rating ([2]; 250 ppm): 74%
- Test E disease control rating ([3]; 250 ppm): 99%
- Test F disease control rating ([4]; 250 ppm): 0%
- Test C disease control rating ([5]; 250 ppm): 0%
- Test A disease control rating ([6]; 250 ppm): 98%

Structure (SMILES): CCc1c(-c2c(F)cccc2F)c(-c2cc(OC)cc(F)c2Br)nn(C)c1=O [Compound 181]
- Test D disease control rating ([1]; 50 ppm): 100%
- Test B disease control rating ([2]; 50 ppm): 100%
- Test E disease control rating ([3]; 50 ppm): 94%
- Test F disease control rating ([4]; 50 ppm): 100%
- Test C disease control rating ([5]; 50 ppm): 100%
- Test A disease control rating ([6]; 50 ppm): 98%

Structure (SMILES): COc1cc(OC)c([N+](=O)[O-])c(-c2nn(C)c(=O)cc2-c2c(F)cccc2F)c1Cl [Compound 31]
- Test D disease control rating ([1]; 50 ppm): 0%
- Test B disease control rating ([2]; 50 ppm): 9%
- Test E disease control rating ([3]; 50 ppm): 0%
- Test F disease control rating ([4]; 50 ppm): 0%
- Test C disease control rating ([5]; 50 ppm): 0%
- Test A disease control rating ([6]; 50 ppm): 0%

Structure (SMILES): Cn1nc(-c2cc(F)ccc2Cl)c(-c2ccc(F)cc2Cl)c(Cl)c1=O [Compound 82]
- Test D disease control rating ([1]; 50 ppm): 100%
- Test B disease control rating ([2]; 50 ppm): 100%
- Test E disease control rating ([3]; 50 ppm): 64%
- Test F disease control rating ([4]; 50 ppm): 100%
- Test C disease control rating ([5]; 50 ppm): 100%
- Test A disease control rating ([6]; 50 ppm): 100%

Structure (SMILES): CCOc1ccc(Cl)c(-c2nn(C)c(=O)c(C)c2-c2ccc(F)cc2Cl)c1 [Compound 175]
- Test D disease control rating ([1]; 50 ppm): 100%
- Test B disease control rating ([2]; 50 ppm): 100%
- Test E disease control rating ([3]; 50 ppm): 98%
- Test F disease control rating ([4]; 50 ppm): 100%
- Test C disease control rating ([5]; 50 ppm): 99%
- Test A disease control rating ([6]; 50 ppm): 100%

Structure (SMILES): Cn1nc(-c2cc(C#N)ccc2Cl)c(-c2ccc(F)cc2Cl)c(Cl)c1=O [Compound 49]
- Test D disease control rating ([1]; 50 ppm): 96%
- Test B disease control rating ([2]; 50 ppm): 100%
- Test E disease control rating ([3]; 50 ppm): 96%
- Test F disease control rating ([4]; 50 ppm): 99%
- Test C disease control rating ([5]; 50 ppm): 98%
- Test A disease control rating ([6]; 50 ppm): 100%

Structure (SMILES): COc1cc(OC)cc(C2=NN(C)C(=O)CC2c2ccc(F)cc2Cl)c1 (stereo not drawn) [Compound 20]
- Test D disease control rating ([1]; 250 ppm): 0%
- Test B disease control rating ([2]; 250 ppm): 9%
- Test E disease control rating ([3]; 250 ppm): 31%
- Test F disease control rating ([4]; 250 ppm): 0%
- Test C disease control rating ([5]; 250 ppm): 21%
- Test A disease control rating ([6]; 250 ppm): 51%

Structure (SMILES): Cn1nc(-c2cc(F)ccc2Cl)c(-c2c(F)cccc2F)cc1=O [Compound 28]
- Test D disease control rating ([1]; 250 ppm): 0%
- Test B disease control rating ([2]; 250 ppm): 100%
- Test E disease control rating ([3]; 250 ppm): 100%
- Test F disease control rating ([4]; 250 ppm): 0%
- Test C disease control rating ([5]; 250 ppm): 100%
- Test A disease control rating ([6]; 250 ppm): 100%

Structure (SMILES): CCn1nc(-c2cc(OC)cc(OC)c2Cl)c(-c2c(F)cccc2F)cc1=O [Compound 8]
- Test D disease control rating ([1]; 50 ppm): 75%
- Test B disease control rating ([2]; 50 ppm): 96%
- Test E disease control rating ([3]; 50 ppm): 99%
- Test F disease control rating ([4]; 50 ppm): 0%
- Test C disease control rating ([5]; 50 ppm): 97%
- Test A disease control rating ([6]; 50 ppm): 100%

Structure (SMILES): Cn1nc(-c2ccccc2Cl)c(-c2ccc(F)cc2Cl)c(O)c1=O [Compound 182]
- Test D disease control rating ([1]; 50 ppm): 0%
- Test B disease control rating ([2]; 50 ppm): 0%
- Test E disease control rating ([3]; 50 ppm): 0%
- Test F disease control rating ([4]; 50 ppm): 0%
- Test C disease control rating ([5]; 50 ppm): 0%
- Test A disease control rating ([6]; 50 ppm): 0%

Structure (SMILES): COc1cc(C#N)cc(-c2cc(=O)n(C)nc2-c2cc(C#N)cc(OC)c2)c1 [Compound 204]
- Test D disease control rating ([1]; 50 ppm): 39%
- Test B disease control rating ([2]; 50 ppm): 0%
- Test E disease control rating ([3]; 50 ppm): 0%
- Test F disease control rating ([4]; 50 ppm): 0%
- Test C disease control rating ([5]; 50 ppm): 0%
- Test A disease control rating ([6]; 50 ppm): 2%

Structure (SMILES): COc1cc(F)c(Br)c(-c2nn(C)c(=O)c(Cl)c2-c2ccc(F)cc2Cl)c1 [Compound 159]
- Test D disease control rating ([1]; 50 ppm): 100%
- Test B disease control rating ([2]; 50 ppm): 100%
- Test E disease control rating ([3]; 50 ppm): 99%
- Test F disease control rating ([4]; 50 ppm): 100%
- Test C disease control rating ([5]; 50 ppm): 99%
- Test A disease control rating ([6]; 50 ppm): 100%

Structure (SMILES): CCn1nc(-c2c(Cl)c(OC)cc(OC)c2Cl)c(-c2c(F)cccc2F)cc1=O [Compound 2]
- Test D disease control rating ([1]; 250 ppm): 0%
- Test B disease control rating ([2]; 250 ppm): 0%
- Test E disease control rating ([3]; 250 ppm): 0%
- Test F disease control rating ([4]; 250 ppm): 0%
- Test C disease control rating ([5]; 250 ppm): 0%
- Test A disease control rating ([6]; 250 ppm): 2%

Structure (SMILES): COc1cc(OC)cc(-c2nn(C)c(=O)c(C)c2-c2ccc(F)cc2Cl)c1 [Compound 65]
- Test D disease control rating ([1]; 50 ppm): 94%
- Test B disease control rating ([2]; 50 ppm): 100%
- Test E disease control rating ([3]; 50 ppm): 100%
- Test F disease control rating ([4]; 50 ppm): 99%
- Test C disease control rating ([5]; 50 ppm): 98%
- Test A disease control rating ([6]; 50 ppm): 99%

Structure (SMILES): COc1cc(F)c(Cl)c(-c2nn(C)c(=O)cc2-c2c(F)cccc2F)c1 [Compound 205]
- Test D disease control rating ([1]; 50 ppm): 71%
- Test B disease control rating ([2]; 50 ppm): 99%
- Test E disease control rating ([3]; 50 ppm): 99%
- Test F disease control rating ([4]; 50 ppm): 99%
- Test C disease control rating ([5]; 50 ppm): 98%
- Test A disease control rating ([6]; 50 ppm): 100%
